Test results: patent US12697343B2, “Intravenous istaroxime for the treatment of acute heart failure” (Seismic Pharmaceuticals Operations LLC, priority 2021, dated 2026)
Structures can show the parent of a compound that is named as a salt. Where two headings read alike, the source gives them in different places.

What was measured:
[1] = system: patients hospitalized for acute heart failure (AHF); test: NT-proBNP serial measurements (Elecsys proBNP II); type: in vivo, human
Procedure: (§1) The primary efficacy endpoint was the change from baseline to 24 h after the start of the infusion in the E/e ratio assessed by tissue Doppler echocardiography. Secondary endpoints included the change from baseline to 24 h of other echocardiography parameters: LVEF, left ventricular end-systolic and end-diastolic volumes, stroke volume index, E, A, E/A ratio, and S′: changes in dyspnoea by visual analogue scale (VAS) and in NT-proBNP from baseline to 24 h: proportion of patients with hospital readmissions or emergency visits for cardiovascular reasons by day 30; proportion of patients with episodes of in-hospital worsening heart failure to day 4, and length of stay. In-hospital worsening heart failure was defined by the need to increase the dose or reinitiate intravenous therapy with diuretics and/or other inotropic agents to day 4. Safety endpoints were assessed throughout the study and included: incidence of adverse events (AEs): change in vital signs and in 12-lead electrocardiographic (ECG) parameters: incidence of clinically or haemodynamically significant episodes of supraventricular or ventricular arrhythmias detected by continuous ECG monitoring: standard laboratory parameters: renal function: cardiac troponin T (cTnT): incidence of cTnT elevations, and mortality at day 30. Elevations in cTnT were considered significant if they were >50% or >20% from baseline values, for patients with cTnT below or above the 99% upper reference limit at baseline, respectively.
The study design included a 24 h screening period, a 24 h study drug infusion phase (day 1), a post-treatment phase (days 2-4), and a follow-up visit at day 30 (FIG. 5). Patients could be enrolled at any time after admission. The use of oral medications was permitted during the study with the exception of digoxin. Intravenous diuretics were permitted during the treatment period at stable doses, unless changes were required due to clinically relevant variations of the patient's condition. If treatment with an inotrope was clinically necessary during the infusion period, the investigational product was discontinued. Echocardiography was performed according to international standards at screening, baseline (just before starting study drug infusion), 6, 24 h (just before infusion end), and 48 h after infusion start. Echocardiographic measurements at baseline, 6, 24, and 48 h were evaluated in a blinded fashion by a CoreLab located at the University and Civil Hospital of Brescia, Italy. E/e′ ratio was calculated as the ratio between the peak early diastolic mitral flow velocity (E wave) and the mean of the annular lateral (e′ lateral) and septal (e′ septal) velocities, according to standard guidelines.^20 Intraobserver and interobserver variability in E/e′ measurement was tested on the 15% of the recordings and is shown in FIG. 6. Self-reported dyspnoea was assessed using a 100 mm VAS, with zero representing the worst level of dyspnoea and […] the best breathing condition. Twenty-four hour ECG monitoring was performed using a three-lead device (Mortara industries, Milwaukee, WI, USA) during the day of screening, the infusion period, and the day after (the latter was optional). Analysis was conducted by a blinded CoreLab (ICS Maugeri, Italy). Serial measurements of NT-proBNP throughout the study were analyzed by a central laboratory (Elecsys® proBNP II, Roche®, Basel, Switzerland). Samples for cTnT were taken at baseline, 3, 6, 12, 24, 48, and 72 h and on day 30, and were analyzed by a core laboratory (Elecsys® high-sensitivity assay, Roche®, Basel, Switzerland). AEs were monitored throughout the duration of the study.
The study was designed as a mechanistic and safety study to assess the effects of a 24 h istaroxime infusion in patients hospitalized for AHF. […]

[2] = system: patients hospitalized for acute heart failure (AHF); parameters: species or system human; settings: in vivo
Procedure: as §1, with “In-hospital worsening heart failure was defined by the need to increase the dose or reinitiate intravenous therapy with diuretics and/or other inotropic agents to day 4.” left out, “Elevations in cTnT were considered significant if they were >50% or >20% from baseline values, for patients with cTnT below or above the 99% upper reference limit at baseline, respectively.” left out
The study design included a 24 h screening period, a 24 h study drug infusion phase (day 1), a post-treatment phase (days 2-4), and a follow-up visit at day 30 (FIG. 5). […] AEs were monitored throughout the duration of the study.

[3] = system: patients hospitalized for acute heart failure (AHF); settings: intention-to-treat analysis, Carubelli et al., cited from earlier work
[4] = system: patients hospitalized for acute heart failure (AHF); test: Vital signs (systolic blood pressure, heart rate) during and after 24 h infusion; type: in vivo, human
Description: This study was a phase II, multicenter, randomized, double-blind, placebo-controlled, parallel group investigation, conducted at two sites in Italy and eight sites in China. All patients provided written informed consent. The study was approved by country regulatory authorities and by local institutional review boards. The trial is registered in the European Clinical Trials Database (EudraCT 2013-000540-26) and ClinicalTrials.gov (NCT02617446).
Patients were randomized 2:1 to istaroxime or placebo 24 h infusion and were enrolled in two sequential cohorts, the first with an istaroxime dose of 0.5 μg/kg/min and the second with an istaroxime dose of 1.0 μg/kg/min. At the end of cohort 1 enrollment, an independent Data Safety and Monitoring Board conducted an interim safety analysis of unblinded data before proceeding to cohort 2 enrollment. Inclusion criteria were: age ≥18 years, an ongoing hospitalization for AHF with dyspnoea at rest or minimal exertion and need for intravenous diuretic therapy (40 mg intravenous furosemide), SBP between 90 and 125 mmHg without signs or symptoms of peripheral hypoperfusion: LVEF ≤40%: intermediate to high E/e′ ratio by tissue Doppler echocardiography (10); brain natriuretic peptide (BNP) or N-terminal pro BNP (NT-proBNP) plasma levels ≥350 pg/mL or ≥1400 pg/mL, respectively, and presence of adequate echocardiographic windows. The main exclusion criteria were: concomitant or planned treatment with intravenous vasodilators, inotropes or vasopressors: treatment with oral digoxin (patients treated with digoxin within the last week could be randomized if the plasma concentration at screening was 0.5 ng/mL); acute coronary syndrome or stroke within the past 3 months: coronary artery bypass graft or percutaneous coronary intervention within the past month or planned in the next month: resting HR >120 bpm or <50 bpm: life-threatening ventricular arrhythmia or implantable cardioverter-defibrillator shock within the past month: fever 38° C.; serum creatinine 3.0 mg/dL or estimated glomerular filtration rate (eGFR) 30 mL/min/m2; serum potassium 5.3 mmol/L or 3.8 mmol/L; severe hepatic dysfunction.
as §1
The study design included a 24 h screening period, a 24 h study drug infusion phase (day 1), a post-treatment phase (days 2-4), and a follow-up visit at day 30 (FIG. 5). Patients could be enrolled at any time after admission. The use of oral medications was permitted during the study with the exception of digoxin. […]

Compound: C[C@]12CCC(=NOCCN)C[C@@H]1C(=O)C[C@@H]1[C@@H]2CC[C@]2(C)C(=O)CC[C@@H]12 [Istaroxime, (E,Z)-3-((2-aminoethoxy)imino)androstane-6,17-dione hydrochloride]
- NT-proBNP, median change from baseline ([1]; 0.5 μg/Kg/min, 24 hours): 120 pg/mL
- NT-proBNP, median change from baseline ([1]; 0.5 μg/Kg/min, 48 hours): -431 pg/mL
- NT-proBNP, median change from baseline ([1]; 0.5 μg/Kg/min, 72 hours): -802 pg/mL
- NT-proBNP, median change from baseline ([1]; 1.0 μg/Kg/min, 24 hours): -214 pg/mL
- NT-proBNP, median change from baseline ([1]; 1.0 μg/Kg/min, 48 hours): -563 pg/mL
- NT-proBNP, median change from baseline ([1]; 1.0 μg/Kg/min, 72 hours): -528 pg/mL
- clinically significant arrhythmias, 24 h Holter monitoring [2]: no differences
- mean change in E/e′ ratio at 24 h ([3]; 0.5 μg/kg/min): −4.55 (4.75)
- mean change in E/e′ ratio at 24 h ([3]; 1.0 μg/kg/min): −3.16 (2.59)
- HR mean change from baseline ([4]; 0.5 μg/Kg/min, 3 hours): −4.21 bpm
- SBP mean change from baseline ([4]; 0.5 μg/Kg/min, 3 hours): 1.49 mmHg
- HR mean change from baseline ([4]; 0.5 μg/Kg/min, 6 hours): −3.51 bpm
- SBP mean change from baseline ([4]; 0.5 μg/Kg/min, 6 hours): 2.92 mmHg
- HR mean change from baseline ([4]; 0.5 μg/Kg/min, 12 hours): −4.59 bpm
- SBP mean change from baseline ([4]; 0.5 μg/Kg/min, 12 hours): 3.13 mmHg
- HR mean change from baseline ([4]; 0.5 μg/Kg/min, 24 hours): −3.26 bpm
- SBP mean change from baseline ([4]; 0.5 μg/Kg/min, 24 hours): 2.82 mmHg
- HR mean change from baseline ([4]; 0.5 μg/Kg/min, 48 hours): −0.37 bpm
- SBP mean change from baseline ([4]; 0.5 μg/Kg/min, 48 hours): −3.10 mmHg
- HR decreased from baseline by ([4]; 0.5 μg/kg/min): about 3 bpm
- SBP increased from baseline by ([4]; 0.5 μg/kg/min): about 3 mmHg
- HR mean change from baseline ([4]; 1.0 μg/Kg/min, 3 hours): −10.61 bpm
- SBP mean change from baseline ([4]; 1.0 μg/Kg/min, 3 hours): 7.63 mmHg
- HR mean change from baseline ([4]; 1.0 μg/Kg/min, 6 hours): −8.89 bpm
- SBP mean change from baseline ([4]; 1.0 μg/Kg/min, 6 hours): 8.08 mmHg
- HR mean change from baseline ([4]; 1.0 μg/Kg/min, 12 hours): −9.49 bpm
- SBP mean change from baseline ([4]; 1.0 μg/Kg/min, 12 hours): 9.00 mmHg
- HR mean change from baseline ([4]; 1.0 μg/Kg/min, 24 hours): −9.61 bpm
- SBP mean change from baseline ([4]; 1.0 μg/Kg/min, 24 hours): 6.11 mmHg
- HR mean change from baseline ([4]; 1.0 μg/Kg/min, 48 hours): 3.86 bpm
- SBP mean change from baseline ([4]; 1.0 μg/Kg/min, 48 hours): −1.73 mmHg
- SBP increased from baseline by ([4]; 1.0 μg/kg/min, significant vs. placebo at 3 to 12 h): 6-8 mmHg
- HR decreased from baseline by ([4]; 1.0 μg/kg/min, significant vs. placebo at 3 to 24 h): 8-9 bpm
